Values of other authors, collected in patent publication US9066965B1, “Purified limonin glucoside for prevention and treatment of chronic diseases” (The United States of America, as represented by the …, priority 2012, dated 2015).

Key:
[1] = purified flavonoids, hypercholesterolemic men and women; cited from earlier work
TGRS = target: T1, TGRS (Homo sapiens, UniProt Q8TDU6); conditions: cited from earlier work
T1 sequence (Q8TDU6 1-330): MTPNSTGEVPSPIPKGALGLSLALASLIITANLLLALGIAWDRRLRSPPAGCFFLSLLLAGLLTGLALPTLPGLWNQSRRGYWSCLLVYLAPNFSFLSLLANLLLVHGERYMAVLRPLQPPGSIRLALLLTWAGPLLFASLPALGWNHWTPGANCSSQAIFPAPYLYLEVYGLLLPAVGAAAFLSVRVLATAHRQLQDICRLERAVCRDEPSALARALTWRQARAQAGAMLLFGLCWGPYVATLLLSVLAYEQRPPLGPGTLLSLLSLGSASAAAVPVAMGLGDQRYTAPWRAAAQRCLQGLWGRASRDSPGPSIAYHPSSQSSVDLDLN

Hep G2 cell line = conditions: cited from earlier work
[2] = 0.2% in diet, mice fed high fat diets; cited from earlier work

Row | SMILES | effect on serum total- and LDL cholesterol [1] | activation of TGRS (TGRS) | Apo B secretion (Hep G2 cell line) | high fat diet induced obesity and hyperglycemia [2]
1 | COc1ccc([C@@H]2CC(=O)c3c(O)cc(O[C@@H]4O[C@H](CO[C@@H]5O[C@@H](C)[C@H](O)[C@@H](O)[C@H]5O)[C@@H](O)[C@H](O)[C@H]4O)cc3O2)cc1O [hesperidin] | did not alter | – | – | –
2 | CC1(C)O[C@H]2CC(=O)OC[C@]23[C@H]2CC[C@@]4(C)[C@H](c5ccoc5)OC(=O)[C@H]5O[C@]54[C@]2(C)C(=O)C[C@@H]13 [limonin] | – | did not activate | significantly decreased | –
3 | C[C@@H]1O[C@@H](O[C@H]2[C@H](Oc3cc(O)c4c(c3)O[C@H](c3ccc(O)cc3)CC4=O)O[C@H](CO)[C@@H](O)[C@@H]2O)[C@H](O)[C@H](O)[C@H]1O [naringin] | did not alter | – | – | –
4 | CC(=O)O[C@H]1CC(=O)OC(C)(C)[C@@H]2CC(=O)[C@]3(C)[C@H](CC[C@@]4(C)[C@H](c5ccoc5)OC(=O)[C@H]5O[C@]543)[C@@]12C [nomilin] | – | activating | – | prevented
